Data published in patent US10940240B2, “Catheter locking solution and catheter locking therapy” (Medical Components, Inc., priority 2016, dated 2021).

Test system: Staphylococcus aureus CIP 65.25 (methicillin resistant)
Experiment: anti-biofilm assay on 24 h biofilms formed on Chronoflex catheter segments in microfermentors
Type: cell-based
Conditions: for effect in lysing the bacteria compared with 15 v/v % EtOH: EtOH alone; for number of viable cells on catheter segment (Moyenne): biofilm on catheter segment exposed to solution for 24 hours at 37° C., triplicate, limit of detection 10 CFU per KT segment; for effect on bacterial survival / lysis of bacterial cells: biofilm exposed 24 hours at 37° C., complete lysis = under the threshold of detection (10 CFU per KT segment)
Description: For example, preliminary assay testing of anti-biofilm properties of a TCEA solution comprising a 10.0 w/v % concentration of trisodium citrate at and 15.0, 20.0 and 25.0 v/v % concentrations of ethyl alcohol (i.e., ethanol or EtOH) were conducted. The testing was performed in the following manner.
Ethanol 15%, 20% and 25% (v/v)+trisodium citrate 10% (w/v)
Controls: Ethanol 15%, 20% and 25% • Trisodium citrate 10% • Water for injection The material tested were segments, each 1 centimeter long, of sterile catheters Chronoflex (“catheter segments”). The strains used were Staphylococcus aureus CIP 65.25 (methicillin resistant).
Biofilms were formed in aerated microfermentors with catheter segments fixed onto an internal removable glass slide of the microfermentors. Strains from frozen stocks were cultivated in Trypticase Soja broth (“TSB”). An inoculum of 10^8 cells was used to inoculate microfermentors containing the catheter segments. A continuous flow of 54 milliliters per hour (“mL/h”) of TSB and constant aeration with sterile pressed air at 0.3 bar were used to obtain continuous flow-through culture conditions. After 24 hours of incubation, the catheter segments were removed from the incubator and separated from their respective microfermentor device. Each catheter segment was then carefully rinsed in 1 mL of saline.
To determine the number of viable cells within the biofilms formed onto the catheter segments before being subjected to or made to be in contact with the test solutions (i.e., before treatment), the biofilms (triplicate for each strain) were resuspended in TSB by sonication and vortexing. Serial dilutions of the resulting suspensions were performed and plated onto appropriate agar plates to determine the number of viable cells after overnight incubation at 37 degrees Celsius (“° C.”).
In parallel, catheter segments to be tested were placed in a tube containing 1 mL of the different lock solutions: (i) ethanol at 15%, 20% and 25% (vol/vol); (ii) trisodium citrate at 10% (vol/vol); (iii) ethanol/tri sodium citrate mixing solutions (15%-10%, 20%-10%, 25%-10% (vol/vol)), wherein ethanol concentrations were 15%, 20%, and 25%, and trisodium citrate concentration was 10%; and (iv) water for injection as control. For every organism, the experiments were repeated in triplicate, and during each treatment assay catheter segments were exposed to the different solutions for 24 hours at 37° C. Subsequently, the catheter segments were removed, rinsed once with saline, and the number of adherent viable microorganisms determined, as described above. In FIG. 1, the number of viable cells is expressed as Colony Forming Unit (“CFU”), and the bacteria count is expressed as a decimal logarithm, log 10. (Note: FIG. 1 expresses the CFU as UFC, which is an acronym for unite formant colonie and is the same unit of measure as CFU.). The limit of detection in the experimental conditions is 10 CFU per KT segment, thus the threshold of detection is 10 CFU per KT segment. KT is a catheter sample used during testing, and its length can range from 3 to 5 centimeters. A KT can be a specimen of a catheter that have been cut (1 meter long usually) and placed into a microfermentor apparatus so that biofilms are formed at a surface of the catheter. Once the biofilm is formed and place into contact with the catheter lock solution to be tested, a measured the number of bacterial viable cells still present at the surface of the catheter is obtained. The limit of detection is 10 Colony Forming Units per specimen of catheter.
During the study, the disclosed catheter locking solution had been tested to ascertain whether it can eradication viable bacterial and prevent regrowth of biofilm. […] The catheter locking solution had been tested against Staphylococcus aureus (methicillin resistant).

## ethyl alcohol [EtOH 20% (v/v)]
  effect in lysing the bacteria compared with 15 v/v % EtOH: significantly greater effect in lysing the bacteria
  number of viable cells on catheter segment (Moyenne): 1.00E+01 CFU

## ethyl alcohol [EtOH 15% (v/v)]
Listed as EtOH alone (at 15 v/v %)
  effect on bacterial survival / lysis of bacterial cells: did not lyse all the bacterial cells
Listed as EtOH alone, at 15 v/v % concentration
  effect on bacterial survival / lysis of bacterial cells: did not lyse all the bacterial cells
Listed as Ethyl alcohol at a concentration of 15.0 v/v %
  effect on bacterial survival / lysis of bacterial cells: did not lyse all bacterial cells
  number of viable cells on catheter segment (Moyenne): 2.12E+02 CFU
Preliminary in vitro testing
  bacterial cells after treatment (decreased from 1.00 E+07): 1.00E+02

## O=C([O-])CC(O)(CC(=O)[O-])C(=O)[O-].[Na+].[Na+].[Na+] [citrate 10% (m/v), trisodium citrate]
  effect on bacterial survival / lysis of bacterial cells: no effect on the bacterial survival
  number of viable cells on catheter segment (Moyenne): 3.64E+06 CFU

## ethyl alcohol [EtOH 25% (v/v)]
  effect in lysing the bacteria compared with 15 v/v % EtOH: significantly greater effect in lysing the bacteria
  number of viable cells on catheter segment (Moyenne): 1.00E+01 CFU
